Data from patent US20160296529A1, “AMINOTRIAZOLOPYRIDINE FOR USE IN THE TREATMENT OF INFLAMMATION, AND PHARMACEUTICAL COMPOSITIONS THEREOF” (priority 2012, published 2016).
pIC50: −log10 of the molar value. Where “and” joins values, the source holds several entries; their conditions need not be identical. Identical values can stand only once. Like-named read-outs stand apart in the source and are kept apart here.

What was measured:
[1] = test system: GM-CSF-induced STAT5 phosphorylation (JAK2-dependent pathway); test: Human whole blood assay (hWBA), GM-CSF stimulation, phospho-STAT5 on CD33+ cells; assay type: cell-based; settings: 7 different donors
Description: A flow cytometry analysis was performed to establish JAK1 over JAK2 compound selectivity ex vivo using human whole blood. Therefore, blood is taken from human volunteers who gave informed consent. Blood is then equilibrated for 30 min at 37° C. under gentle rocking, then aliquoted in Eppendorf tubes. Compound is added at different concentrations and incubated at 37° C. for 30 min under gentle rocking and subsequently stimulated for 20 min at 37° C. under gentle rocking with interleukin 6 (IL-6) for JAK1-dependent pathway stimulation or GM-CSF for JAK2-dependent pathway stimulation. Phospho-STAT1 and phospho-STAT5 are then evaluated using FACS analysis. […]
Cells were then washed once with 1×PBS and analyzed on a FACSCanto II flow cytometer (BD Biosciences).
50,000 total events were counted and Phospho-STAT5 positive cells were measured after gating on CD33^+ cells. Data were analyzed using the FACSDiva software and correspond to the percentage of inhibition of GM-CSF stimulation calculated from the percentage of positive cells for phosphor-STAT5 on CD33^+ cells.
A flow cytometry analysis was performed to establish JAK1 over JAK2 compound selectivity ex vivo using human whole blood. […] Phospho-STAT1 (for IL-6- and IFNα-stimulated cells) and phospho-STAT5 (for IL-2- and GM-CSF-stimulated cells) levels are then evaluated using FACS analysis. […]

[2] = molecular target: T1, Recombinant human JAK2 catalytic domain (Homo sapiens, UniProt O60674); test: JAK2 Ulight-JAK1 peptide assay; assay type: biochemical
T1 construct: amino acids 808-1132; catalog number PV4210; GST; purchased Invitrogen PV4210
Description: 0.0125 mU of JAK2 was incubated with 25 nM Ulight-JAK1(tyr1023) peptide (Perkin Elmer catalog number TRF0121) in kinase reaction buffer (25 mM HEPES pH7.0, 0.01% Triton X-100, 7.5 mM MgCl2, 2 mM DTT, 7.5 μM ATP) with or without 4 μL containing test compound or vehicle (DMSO, 1% final concentration), in a total volume of 20 μL, in a white 384 Opti plate (Perkin Elmer, catalog number 6007290). After 60 min at room temperature, reactions were stopped by adding 20 μL/well of detection mixture (1× detection buffer (Perkin Elmer, catalog number CR97-100C), 0.5 nM Europium-anti-phosphotyrosine (PT66) (Perkin Elmer, catalog number AD0068), 10 mM EDTA). Readout was performed using the Envision with excitation at 320 nm and measuring emission at 615 nm (Perkin Elmer). Kinase activity was calculated by subtracting relative fluorescence units (RFU) obtained in the presence of a positive control inhibitor (10 μM staurosporine) from RFU obtained in the presence of vehicle. The ability of a test compound to inhibit this activity was determined as:
Percentage inhibition−((RFU determined for sample with test compound present−RFU determined for sample with positive control inhibitor) divided by (RFU determined in the presence of vehicle−RFU determined for sample with positive control inhibitor))*100. […]

T1 sequence (O60674 808-1132): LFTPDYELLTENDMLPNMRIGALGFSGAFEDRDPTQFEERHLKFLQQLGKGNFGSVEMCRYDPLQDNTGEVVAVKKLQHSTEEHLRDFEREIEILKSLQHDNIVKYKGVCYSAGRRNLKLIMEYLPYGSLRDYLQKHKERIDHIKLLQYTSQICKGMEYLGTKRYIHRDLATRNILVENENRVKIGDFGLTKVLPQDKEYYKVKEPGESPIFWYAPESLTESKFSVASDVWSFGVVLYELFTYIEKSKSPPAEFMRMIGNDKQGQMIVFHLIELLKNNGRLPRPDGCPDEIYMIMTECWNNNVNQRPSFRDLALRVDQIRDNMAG

pIC50 [1]: < 4.00
pIC50 ([2]; average, read-out: IC50 (average)): 6.40
pIC50 ([2]; individual determinations, read-out: IC50): 5.99 and 6.29 and 6.45 and 6.86 and 6.44 and 6.51 and 6.14 and 6.82 and 6.69 and 6.77
Compound: Nc1nc2cccc(-c3ccc(CN4CCS(=O)(=O)CC4)cc3)n2n1 [Formula I, 5-[4-(1,1-Dioxothiomorpholin-4-ylmethyl)-phenyl]-[1,2,4]triazolo[1,5-a]pyridin-2-ylamine]
